Data published in patent publication US7022716B2, “Cyclic amine phenyl beta-3 adrenergic receptor agonists” (Wyeth, priority 2000, dated 2006).

biological target: T1, human β3 adrenergic receptor (Homo sapiens, UniProt P13945); assay: cAMP (SPA) response in CHO cells transfected with human β3 adrenergic receptor; type: cell-based; design: key: fraction of maximal isoproterenol (10^-5 M) response; conditions: maximal response relative to maximal response of isoproterenol at 10^-5 M
T1 construct: Full length β3 AR clones (402 amino acids) containing the last 6 amino acids of hβ3-AR are prepared; expressed in transfected cells; host or cells: CHO (Chinese hamster ovary) cells
T1 sequence (P13945 whole entry): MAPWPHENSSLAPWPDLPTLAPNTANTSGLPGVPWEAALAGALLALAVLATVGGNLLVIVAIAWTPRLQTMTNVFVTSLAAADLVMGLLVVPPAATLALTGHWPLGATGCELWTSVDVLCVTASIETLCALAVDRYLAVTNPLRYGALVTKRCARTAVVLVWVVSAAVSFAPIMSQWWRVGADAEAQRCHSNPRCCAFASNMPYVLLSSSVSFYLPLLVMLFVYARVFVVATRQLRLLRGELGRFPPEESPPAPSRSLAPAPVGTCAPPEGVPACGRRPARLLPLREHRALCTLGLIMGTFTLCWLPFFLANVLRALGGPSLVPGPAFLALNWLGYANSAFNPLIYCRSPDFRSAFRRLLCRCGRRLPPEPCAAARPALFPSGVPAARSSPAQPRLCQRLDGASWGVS
Method: Binding to the receptors was measured in Chinese Hamster ovary (CHO) cells that were transfected with adrenergic receptors.
The corresponding primer sequences are described in Mantzoros, C. […] The four fragments are ligated into a pUC 18 plasmid (Gibco-BRL) and sequenced.
CHO cells were grown in 24-well tissue culture plates in Dulbecco's Modified Eagle Media with 10% fetal bovine serum, MEM non-essential amino acids, Penicillin-Streptompycin and Geneticin. On the day of test procedure, growth medium was replaced with preincubation media (Dulbecco's Modified Eagle, Media) and incubated for 30 minutes at 37° C. […] Test compounds were tested over a concentration range of 10^−9 M to 10^−5 M for β3 cells and 10^−8 to 10^−4 M for β1 and β2 transfected cells. Isoproterenol (10^−5 M) was used as an internal standard for comparison of activity. Cells were incubated at 37° C. on a rocker for 30 min with the β3 cells and 15 min for β1 and β2 cells. Incubation was stopped with the addition of 0.2N HCl and neutralized with 2.5N NaOH. The plates, containing the cells and neutralized media, were stored at −20 degrees celsius until ready to test for cAMP using the SPA test kit (Amersham).
Data Analysis and Results: Data collected from the SPA test procedure were analyzed as percent of the maximal isoproterenol response at 10^−5 M. Activity curves were plotted using the SAS statistical and graphics software.

Row | SMILES | IA(β3)
1 | COc1ccc(S(=O)(=O)Nc2ccc(N3CCC(NC[C@H](O)COc4ccc(O)cc4)CC3)cc2)cc1OC [Example 279, N-[4-(4-{[(2S)-2-Hydroxy-3-(4-hydroxyphenoxy)propyl]amino}-1-piperidinyl)phenyl]-3,4-dimethoxybenzenesulfonamide] | 0.74
2 | CCCCOc1ccc(S(=O)(=O)Nc2ccc(N3CCC(NCC(O)c4ccc(O)c(NS(C)(=O)=O)c4)CC3)cc2)cc1 (stereo not shown) [Example 281, 4-Butoxy-N-(4-{4-[2-hydroxy-2-(4-hydroxy-3-methanesulfonylamino-phenyl)-ethylamino]-piperidin-1-yl}-phenyl)-benzenesulfonamide] | 1.14
3 | Cc1c(S(=O)(=O)Nc2ccc(N3CCC(NC[C@H](O)COc4cccc5[nH]c(=O)[nH]c45)CC3)cc2)sc2ccc(Cl)cc12 [Example 283, 5-Chloro-N-{4-[4-({(2S)-2-hydroxy-3-[(2-oxo-2,3-dihydro-1H-benzimidazol-4-yl)oxy]propyl}amino)-1-piperidinyl]phenyl}-3-methyl-1-benzothiophene-2-sulfonamide] | 0.81
4 | N#Cc1ccc(S(=O)(=O)Nc2ccc(N3CCC(NC[C@H](O)COc4cccc5[nH]c(=O)[nH]c45)CC3)cc2)cc1 [Example 284, 4-Cyano-N-{4-[4-({(2S)-2-hydroxy-3-[(2-oxo-2,3-dihydro-1H-benzimidazol-4-yl)oxy]propyl}amino)-1-piperidinyl]phenyl}benzenesulfonamide] | 0.87
5 | N#Cc1ccc(S(=O)(=O)N(c2ccc(N3CCC(NC[C@H](O)COc4cccc5[nH]c(=O)[nH]c45)CC3)cc2)S(=O)(=O)c2ccc(C#N)cc2)cc1 [Example 285, 4-Cyano-N-[(4-cyanophenyl)sulfonyl]-N-{4-[4-({(2S)-2-hydroxy-3-[(2-oxo-2,3-dihydro-1H-benzimidazol-4-yl)oxy]propyl}amino)-1-piperidinyl]phenyl}benzenesulfonamide] | 0.76
6 | O=c1[nH]c2cccc(OC[C@@H](O)CNC3CCN(c4ccc(NS(=O)(=O)c5ccc(-c6ccon6)s5)cc4)CC3)c2[nH]1 [Example 287, N-{4-[4-({(2S)-2-Hydroxy-3-[(2-oxo-2,3-dihydro-1H-benzimidazol-4-yl)oxy]propyl}-amino)-1-piperidinyl]phenyl}-5-(3-isoxazolyl)-2-thiophenesulfonamide] | 0.92
7 | CCCCOc1ccc(S(=O)(=O)Nc2ccc(N3CCC(NCC(O)COc4cccc5[nH]c6ccccc6c45)CC3)cc2)cc1 (stereo not shown) [Example 289, 4-Butoxy-N-(4-{4-[3-(9H-carbazol-4-yloxy)-2-hydroxy-propylamino]-piperidin-1-yl}-phenyl)-benzenesulfonamide] | 0.59
8 | CC(=O)Nc1ccc(S(=O)(=O)Nc2ccc(N3CCC(NC[C@H](O)c4ccc(O)c(NS(C)(=O)=O)c4)CC3)cc2)cc1 [Example 291, N-{4-[(4-{4-[((2R)-2-Hydroxy-2-{4-hydroxy-3-[(methylsulfonyl)amino]-phenyl}ethyl)amino]-1-piperidinyl}anilino)sulfonyl]phenyl}acetamide] | 1.07
9 | COc1ccc(S(=O)(=O)Nc2ccc(N3CCC(NC[C@H](O)COc4cccc5[nH]c6ccccc6c45)CC3)cc2)cc1OC [Example 292, N-[4-(4-{[(2S)-3-(9H-Carbazol-4-yloxy)-2-hydroxypropyl]amino}-1-piperidinyl)phenyl]-3,4-dimethoxybenzenesulfonamide] | 0.75
10 | O=S(=O)(Nc1ccc(N2CCC(NC[C@H](O)COc3ccc(O)cc3)CC2)cc1)c1ccc(-c2ccccn2)s1 [Example 293, N-[4-(4-{[(2S)-2-Hydroxy-3-(4-hydroxyphenoxy)propyl]amino}-1-piperidinyl)phenyl]-5-(2-pyridinyl)-2-thiophenesulfonamide] | 0.94
11 | CCCCS(=O)(=O)Nc1ccc(N2CCC(NC[C@H](O)COc3cccc4[nH]c(=O)[nH]c34)CC2)cc1 [Example 296, N-{4-[4-({(2S)-2-Hydroxy-3-[(2-oxo-2,3-dihydro-1H-benzimidazol-4-yl)oxy]propyl}amino)-1-piperidinyl]phenyl}-1-butanesulfonamide] | 0.81
12 | CCCCCCCCS(=O)(=O)Nc1ccc(N2CCC(NCC(O)c3ccc(O)c(NS(C)(=O)=O)c3)CC2)cc1 (stereo not shown) [Example 297, N-(4-{4-[(2-Hydroxy-2-{4-hydroxy-3-[(methylsulfonyl)amino]phenyl}ethyl)amino]-1-piperidinyl}phenyl)-1-octanesulfonamide] | 1
13 | CS(=O)(=O)Nc1cc(C(O)CNC2CCN(c3ccc(NS(=O)(=O)c4ccc(CC5SC(=O)NC5=O)cc4)cc3)CC2)ccc1O (stereo not shown) [Example 302, 4-[(2,4-Dioxo-1,3-thiazolidin-5-yl)methyl]-N-(4-{4-[(2-hydroxy-2-{4-hydroxy-3-[(methylsulfonyl)amino]phenyl}ethyl)amino]-1-piperidinyl}phenyl)benzenesulfonamide] | 0.95

Now from value to compound:

Row | IA(β3) | SMILES
14 | 1.04 | O=c1[nH]c2cccc(OC[C@@H](O)CNC3CCN(c4ccc(NS(=O)(=O)c5ccc(-c6ccccn6)s5)cc4)CC3)c2[nH]1 [Example 278, N-{4-[4-({(2S)-2-Hydroxy-3-[(2-oxo-2,3-dihydro-1H-benzimidazol-4-yl)oxy]propyl}-amino)-1-piperidinyl]phenyl}-5-(2-pyridinyl)-2-thiophenesulfonamide]
15 | 1.16 | COc1ccc(S(=O)(=O)Nc2ccc(N3CCC(NCC(O)c4ccc(O)c(NS(C)(=O)=O)c4)CC3)cc2)cc1OC (stereo not shown) [Example 280, N-(4-{4-[(2-Hydroxy-2-{4-hydroxy-3-[(methylsulfonyl)amino]phenyl}ethyl)amino]-1-piperidinyl}phenyl)-3,4-dimethoxybenzenesulfonamide]
16 | 0.63 | CC(=O)Nc1ccc(S(=O)(=O)Nc2ccc(N3CCC(NC[C@H](O)COc4cccc5[nH]c6ccccc6c45)CC3)cc2)cc1 [Example 282, N-(4-{[4-(4-{[(2S)-3-(9H-Carbazol-4-yloxy)-2-hydroxypropyl]amino}-1-piperidinyl)-anilino]sulfonyl}phenyl)acetamide]
17 | 0.91 | O=c1[nH]c2cccc(OC[C@@H](O)CNC3CCN(c4ccc(NS(=O)(=O)c5sc(Cl)cc5Br)cc4)CC3)c2[nH]1 [Example 286, 3-Bromo-5-chloro-N-{4-[4-({(2S)-2-hydroxy-3-[(2-oxo-2,3-dihydro-1H-benzimidazol-4-yl)oxy]propyl}amino)-1-piperidinyl]phenyl}-2-thiophenesulfonamide]
18 | 1.24 | CS(=O)(=O)Nc1cc(C(O)CNC2CCN(c3ccc(NS(=O)(=O)c4ccc(-n5nnn(CCCC6CCCC6)c5=O)cc4)cc3)CC2)ccc1O (stereo not shown) [Example 288, 4-[4-(3-Cyclopentyl-propyl)-5-oxo-4,5-dihydro-tetrazol-1-yl]-N-(4-{4-[2-hydroxy-2-(4-hydroxy-3-methanesulfonylamino-phenyl)-ethaylamino]-piperidin-1-yl}-phenyl)-benzenesulfonamide]
19 | 0.72 | CCCCCCNC(=O)Nc1ccc(S(=O)(=O)Nc2ccc(N3CCC(NC[C@H](O)COc4cccc5[nH]c6ccccc6c45)CC3)cc2)cc1 [Example 290]
20 | 1.07 | CS(=O)(=O)Nc1cc(C(O)CNC2CCN(c3ccc(NS(=O)(=O)c4ccc(-c5ccccn5)s4)cc3)CC2)ccc1O (stereo not shown) [Example 294, N-(4-{4-[(2-Hydroxy-2-{4-hydroxy-3-[(methylsulfonyl)amino]phenyl}ethyl)amino]-1-piperidinyl}phenyl)-5-(2-pyridinyl)-2-thiophenesulfonamide]
21 | 0.87 | CCCCS(=O)(=O)Nc1ccc(N2CCC(NCC(O)c3ccc(O)c(NS(C)(=O)=O)c3)CC2)cc1 (stereo not shown) [Example 295, N-(4-{4-[(2-Hydroxy-2-{4-hydroxy-3-[(methylsulfonyl)amino]phenyl}ethyl)amino]-1-piperidinyl}phenyl)-1-butanesulfonamide]
22 | 0.78 | CCCCCCCCS(=O)(=O)Nc1ccc(N2CCC(NC[C@H](O)COc3cccc4[nH]c(=O)[nH]c34)CC2)cc1 [Example 298, N-{4-[4-({(2S)-2-Hydroxy-3-[(2-oxo-2,3-dihydro-1H-benzimidazol-4-yl)oxy]propyl}amino)-1-piperidinyl]phenyl}-1-octanesulfonamide]
23 | 1.1 | O=c1[nH]c2cccc(OC[C@@H](O)CNC3CCN(c4ccc(NS(=O)(=O)c5ccc(S(=O)(=O)c6ccc(C(F)(F)F)cn6)s5)cc4)CC3)c2[nH]1 [Example 299]
24 | 0.78 | O=S(=O)(Nc1ccc(N2CCC(NC[C@H](O)COc3ccc(O)cc3)CC2)cc1)c1ccc(S(=O)(=O)c2ccc(C(F)(F)F)cn2)s1 [Example 300, N-[4-(4-{[(2S)-2-Hydroxy-3-(4-hydroxyphenoxy)propyl]amino}-1-piperidinyl)phenyl]-5-{[5-(trifluoromethyl)-2-pyridinyl]sulfonyl}-2-thiophenesulfonamide]
25 | 0.95 | O=C1NC(=O)C(Cc2ccc(S(=O)(=O)Nc3ccc(N4CCC(NC[C@H](O)COc5cccc6[nH]c(=O)[nH]c56)CC4)cc3)cc2)S1 (stereo partly drawn) [Example 301, 4-[(2,4-Dioxo-1,3-thiazolidin-5-yl)methyl]-N-{4-[4-({(2S)-2-hydroxy-3-[(2-oxo-2,3-dihydro-1H-benzimidazol-4-yl)oxy]propyl}amino)-1-piperidinyl]phenyl}-benzenesulfonamide]
